Data published in US20020156094A1, “Sulfonamide interleukin-1beta converting enzyme inhibitors” (Warner-Lambert Company, priority 1996, published 2002).
Several values for one entry are separate records, joined by “and”; a condition that tells them apart may be missing. Equal entries are not always repeated.

Key:
[1] = biological target: T1, ICE (interleukin-1β converting enzyme, Caspase-1) (Homo sapiens, UniProt P29466); test: ICE Ki fluorescence assay (Ac-Tyr-Val-Ala-Asp-AMC hydrolysis); format: biochemical; conditions: ICE 0.24 nM, 15 μM Ac-Tyr-Val-Ala-Asp-AMC, reversible competitive model
T1 sequence (P29466 120-297 limits assumed): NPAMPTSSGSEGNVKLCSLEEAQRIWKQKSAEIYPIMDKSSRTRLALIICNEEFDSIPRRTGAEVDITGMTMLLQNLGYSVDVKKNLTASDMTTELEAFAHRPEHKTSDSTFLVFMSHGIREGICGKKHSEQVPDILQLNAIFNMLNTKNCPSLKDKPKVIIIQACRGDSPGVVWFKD
T1 sequence (P29466 317-404 limits assumed): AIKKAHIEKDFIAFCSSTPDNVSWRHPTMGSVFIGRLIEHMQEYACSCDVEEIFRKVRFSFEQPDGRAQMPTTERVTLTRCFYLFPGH
Protocol: Substrate hydrolysis is monitored for 300 seconds by observing the fluorescence of released AMC using excitation at 380 nm and emission at 460 nm. Mean rates of substrate hydrolysis are evaluated by linear-regression analysis of the fluorescence vs time traces. To evaluate Ki, plots of percent inhibition vs inhibitor concentration are fit by non-linear regression to a reversible, competitive model: [formula]
Where the competition factor (1+[S]/KM)=2.

[2] = biological target: T1, ICE (interleukin-1β converting enzyme, Caspase-1); test: ICE Colorimetric Dose-Response (IC50) Assay; format: biochemical; conditions: ICE approx. 24 nM, 60 min preincubation, 50 μM Ac-Tyr-Val-Ala-Asp-pNA, 25° C.
Protocol: ICE Colorimetric Dose-Response (IC50) Assay
(§1) Diluted inhibitor stocks are prepared by two-fold serial dilution from a primary stock whose concentration is selected (based on screening results or on prior attempts at IC50 evaluation) to achieve approximately 95% inhibition in the most concentrated well. Aliquots of each dilution are transferred to a microtitre plate in triplicate.
(§2) ICE enzyme is diluted to approximately 24 nM in HGE buffer (100 mM HEPES pH 7.5, 0.5 mM EDTA, 20% glycerol, 0.1% Bovine Serum Albumin (BSA)), and activated by adding dithiothreitol (DTT) to a final concentration of 5 mM. The activated enzyme is then aliquoted into wells containing inhibitor or vehicle, and the plate is preincubated for 60 minutes at ambient temperature. Substrate (Ac-Tyr-Val-Ala-Asp-pNA) is added to each well to a final concentration of 50 μM, and plates are placed in the microtitre plate-reader thermostated to 25° C. Beginning 5 minutes after addition of substrate, absorbance (405 nm) of wells is monitored for 1 hour, and activity is calculated as the mean rate of change in absorbance during this interval.

Ich-2 (Caspase-4) = biological target: T2, Ich-2 (Caspase-4) (Homo sapiens, UniProt P49662); test: Ich-2 (Caspase-4) Colorimetric Dose-Response (IC50) Assay; format: biochemical; conditions: enzyme 64 nM, substrate Ac-Leu-Glu-Val-Asp-pNA
T2 sequence (P49662 81-270 limits assumed): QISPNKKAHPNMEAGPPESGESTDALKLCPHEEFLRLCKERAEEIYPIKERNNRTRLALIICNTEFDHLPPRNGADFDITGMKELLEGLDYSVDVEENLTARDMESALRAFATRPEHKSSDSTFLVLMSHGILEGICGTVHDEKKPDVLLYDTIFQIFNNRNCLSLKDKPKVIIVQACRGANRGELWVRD
T2 sequence (P49662 290-377 limits assumed): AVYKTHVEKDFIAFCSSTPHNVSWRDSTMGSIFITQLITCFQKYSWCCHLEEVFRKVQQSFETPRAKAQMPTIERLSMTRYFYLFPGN
Protocol: as §1, §2
Ich-2 (Caspase-4) Colorimetric Dose-Response (IC50) Assay
Inhibition of Ich-2 enzyme is assayed as described above for ICE, except that enzyme is used at 64 nM, and 60 µM of the Ich-2-specific substrate Ac-Leu-Glu-Val-Asp-pNA is used instead of the ICE substrate Ac-Tyr-Val-Ala-Asp-pNA.

Row | Structure (SMILES) | Ki [1] | melting point [°C] | IC50 [2] [µM] | IC50 (Ich-2 (Caspase-4)) [µM]
1 | O=C(O)CC(NC(=O)OCc1ccccc1)C(=O)CNS(=O)(=O)CCCc1ccccc1 (stereo not shown) [Example 2b, 3-Benzloxycarbonylamino-4-oxo-5-(3-phenylpropane-1-sulfonylamino)-pentanoic acid] | 34.5 µM and 32 µM | 96 to 104 | 245 | 8590
2 | CC(C)C(NC(=O)C(CCC(=O)O)NC(=O)OCc1ccccc1)C(=O)NC(CC(=O)O)C(=O)CNS(=O)(=O)CC12CCC(CC1=O)C2(C)C (stereo not shown) [Example 4f, 3-[2-(2-Benzyloxycarbonylamino-4-carboxy-butyrylamino)-3-methyl-butyrylamino]-5-(7,7-dimethyl-2-oxo-bicyclo[2.2.1]hept-1-ylmethanesulfonylamino)-4-oxo-pentanoic acid] | 0.00061 µM |  | 0.002 | 3.2
3 | O=C(O)C[C@H](NC(=O)CN1CCc2ccccc2C1=O)C(=O)CNS(=O)(=O)CC12CCC(CC1)C2 [Example 5b, (S)-5-(Bicyclo[2.2.1]hept-1-ylmethanesulfonylamino)-4-oxo-3-[2-(1-oxo-3,4-dihydro-1H-isoquinolin-2-yl)-acetylamino]-pentanoic acid] | 20 µM |  | 165 | 252
